Source: patent publication US10214746B2, “Soybean transformation method” (Dow AgroSciences LLC, priority 2013, dated 2019)
“Also recorded” adds a separate entry of the source.

Tests used:
soybean shoots = test: Rooting medium selection of aad-12 transformed soybean shoots with 2,4-D; type: in vivo, soybean (cv. Maverick); conditions: aad-12 transgene; rooting medium with 2,4-D about 2 to 120 mg/L
Procedure: Transformed soybean seed can be cultivated using a modified tissue culture protocol as described in U.S. Filing No. 61/739,349, herein incorporated by reference, wherein the selective agent is 2,4-D. Co-cultivation of the soybean plant seeds with Agrobacterium, can be carried out for 5 days on co-cultivation medium covered with a filter paper. After 5 days of incubation on the co-cultivation medium, the explants can be washed in liquid Shoot Induction (SI) medium for about 5 to 10 minutes. The explants can then be cultured onto Shoot Induction-I (SI-I) medium. The soybean seeds are oriented so the flat side of the soybean seed face up and the nodal end of the soybean cotyledon is imbedded into the SI-I medium. After 2 weeks of culture at 24° C. with an 18 hour photoperiod, the explants can be transferred to the Shoot Induction-II (SI-II) medium supplemented with 2 to 120 mg/L 2,4-D. After 2 weeks on SI-II medium, the cotyledons can be removed from the explants, wherein a flush shoot pad is excised by making a cut at the base of the cotyledon, and the isolated shoot is transferred to the Shoot Elongation (SE) medium. The cultures can be transferred to fresh SE medium every two weeks. PETRI™ dishes may not be wrapped with filter paper throughout the shoot induction and shoot elongation stages. […]

[1] = tested on: transgenic soybean events; test: Heritability analysis of transgenic soybean events produced on rooting medium comprising glufosinate (T1 plants sprayed with glufosinate); type: in vivo
Source text: A total of 153 transgenic soybean events were isolated and grown to maturity. These soybean events were self-fertilized to produce seed that was obtained and analyzed for heritability. All of the 153 transgenic soybean events were confirmed to contain the yellow fluorescent protein and phosphinothricin acetyltransferase transgenes via molecular analysis in the parental T0 soybean plants. For each of the 153 transgenic soybean events, 15 seeds were obtained and germinated in soil under conventional green house conditions. The transgenic soybean plants were grown to the V1 stage of development and were sprayed with 411 g ae/ha glufosinate, which was used as the exemplary selection agent in this example. After treatment with glufosinate, the soybean plants were observed and graded as resistant or susceptible to glufosinate. The transgenic soybean events that produced at least one T1 seedling were determined to be a heritable event.

[2] = tested on: non-transgenic soybean shoots; test: Growth response (rooting) of non-transgenic soybean shoots on rooting medium with glufosinate; type: in vivo
Procedure: Growth response studies to varying concentrations of selection agent were conducted using non-transgenic soybean shoots. In this example, glufosinate was used as the exemplary selection agent. Soybean shoots were regenerated from split-seed soybean tissues and cultivated on Shoot Induction medium until shoots had developed and were ready for transfer to rooting medium. Several different concentrations of glufosinate (0, 0.25 mg/L, 0.50 mg/L, 1 mg/L, 2 mg/L, 3 mg/L, 4 mg/L, 5 mg/L, and 6 mg/L) were incorporated into rooting medium (MS salts, B5 vitamins, 28 mg/L ferrous, 38 mg/L Na^2EDTA, 20 g/L sucrose and 0.59 g/L MES, 50 mg/L asparagine, 100 mg/L L-pyroglutamic acid, and 7 g/L NOBLE™ agar, pH 5.6) to determine which concentrations of glufosinate inhibited root development. […] However, 90% and 50% of the soybean shoots cultivated in rooting medium containing glufosinate at concentrations of 0.25 mg/L and 0.5 mg/L, respectively, produced roots. (see Table 1). The effective glufosinate concentration for inhibition of soybean shoot growth and development was determined to be at least 1.0 mg/L of glufosinate. Higher concentrations of glufosinate (e.g., concentrations greater than 1.0 mg/L) were effective in inhibiting root development.

[3] = tested on: transgenic soybean shoots; test: Root development and yellow fluorescence protein expression of pDAB9381-transformed soybean shoots on rooting medium with glufosinate; type: in vivo, Glycine max
Procedure: The transformed soybean seeds were cultivated using the tissue culture protocol as described in U.S. Filing No. 61/739,349, herein incorporated by reference. Co-cultivation of the soybean plant seeds with an Agrobacterium strain containing the pDAB9381 plasmid was carried out for 5 days on co-cultivation medium covered with a filter paper. After 5 days of incubation on the co-cultivation medium, the explants were washed in liquid Shoot Induction (SI) medium for about 5 to 10 minutes. The explants were then cultured onto Shoot Induction-I (SI-I) medium. The soybean seeds were oriented so the flat side of the soybean seed faced up and the nodal end of the soybean cotyledon was imbedded into the SI-I medium. After 2 weeks of culture at 24° C. with an 18 hour photoperiod, the explants were transferred to the Shoot Induction-II (SI-II) medium supplemented with 6 mg/L glufosinate. After 2 weeks on SI-II medium, the cotyledons were removed from the explants, a flush shoot pad was excised by making a cut at the base of the cotyledon, and the isolated shoot was transferred to the Shoot Elongation (SE) medium. The cultures were transferred to fresh SE medium every two weeks. PETRI™ dishes were not wrapped with filter paper throughout the shoot induction and shoot elongation stages. Lighting sources were provided with an illumination of 80-90 μmoles s-1m-2 for the transformed tissues during shoot induction and shoot elongation.
The elongated shoots were dipped in 1 mg/L indole 3-butyric acid (IBA) for about 1 to 3 minutes to promote rooting prior to transferring of the isolated shoots to rooting medium (MS salts, B5 vitamins, 28 mg/L ferrous, 38 mg/L Na^2EDTA, 20 g/L sucrose and 0.59 g/L MES, 50 mg/L asparagine, 100 mg/L L-pyroglutamic acid, and 7 g/L NOBLE™ agar, pH 5.6) in phyta trays. A selection agent of glufosinate at a concentration of 1 mg/L was incorporated into the rooting medium for a subset of the transformation experiments.
Following culturing in the rooting medium at 24° C., with an 18 hour photoperiod, for 1-2 weeks, the soybean shoots that produced healthy, viable roots were transferred to soil. The soybean shoots comprising healthy, viable roots were placed in soil which was contained in an open plastic sundae cup. The plastic sundae cups containing the transferred soybean shoots comprising roots were placed in a CONVIRON™ for acclimatization of soybean plantlets. The rooted soybean plantlets were acclimated in the open sundae cups for several weeks before the plantlets were transferred to the greenhouse.
Incorporation of a section agent comprising glufosinate in soybean tissue culture rooting medium was tested to reduce the formation of non-germline, chimeric soybean transformation events and escapes. Following Agrobacterium-mediated transformation of soybean (cv. Maverick) with the binary vector, pDAB9381, soybean shoots were regenerated and cultured onto rooting medium that contained a selection agent comprising glufosinate. After root development was initiated on the rooting media comprising glufosinate, the roots were tested for transgene expression (yellow fluorescence protein).
A total of 531 transgenic soybean shoots were produced using the transformation method described above and transferred onto rooting medium containing the selection agent glufosinate. […] (see Table 2). A correlation was observed between yellow fluorescence protein transgene expression and viable, white root formation, wherein a significant majority of the viable, white roots expressed the yellow fluorescence protein transgene in root tissues. (see FIG. 2, FIG. 3, and FIG. 5). Microscopy results confirmed that about 92% of the soybean plants produced from rooting medium comprising a selection agent were transgenic as these soybean plants expressed the yellow fluorescence protein transgene. (see FIG. 2, FIG. 3, and FIG. 5).

[4] = Brown/Black Roots on glufosinate rooting medium, 76 events
[5] = Total, 153 T1 events, T1 sprayed with 411 g ae/ha glufosinate
[6] = White Roots on glufosinate rooting medium, 77 events
[7] = glufosinate at least 1 mg/L in rooting medium
[8] = glufosinate 1 mg/L in rooting medium, 531 plants
[9] = root tissues, glufosinate 1 mg/L in rooting medium, 531 plants
[10] = rooting medium comprising glufosinate (1 mg/L)

O=C(O)COc1ccc(Cl)cc1Cl [2,4-D, 2,4-dichlorophenoxyacetic acid]
transgene expression in viable, white roots (soybean shoots): a significant majority of the viable, white roots express the transgene in root tissues

CP(=O)(O)CCC(N)C(=O)O (racemic) [glufosinate, DL-phosphinothricin]
Percentage of heritable events [1, 4]: 7% | Percentage of non-heritable events [1, 4]: 93% | Percentage of heritable events [1, 5]: 48% | Percentage of non-heritable events [1, 5]: 52% | Percentage of heritable events [1, 6]: 90% | Percentage of non-heritable events [1, 6]: 10% | advanced events with viable, healthy roots confirmed to be germline soybean transformants [1, 7]: about 90% | non-germline (chimeric) events eliminated based on root phenotype (brown/black roots or no root development) [1, 7]: about 93% | Percentage of Shoots that Produced Roots ([2]; glufosinate 0.25 mg/L in rooting medium): 90% | Number of Shoots Producing Roots ([2]; glufosinate 0.25 mg/L, 10 shoots cultivated): 9 | Percentage of Shoots that Produced Roots ([2]; glufosinate 0.5 mg/L in rooting medium): 50% | Number of Shoots Producing Roots ([2]; glufosinate 0.5 mg/L, 10 shoots cultivated): 5 | Percentage of Shoots that Produced Roots ([2]; glufosinate 1.0 mg/L in rooting medium): 0% | Number of Shoots Producing Roots ([2]; glufosinate 1.0 mg/L, 30 shoots cultivated): 0 | Percentage of Shoots that Produced Roots ([2]; glufosinate 2.0 mg/L in rooting medium): 0% | Number of Shoots Producing Roots ([2]; glufosinate 2.0 mg/L, 30 shoots cultivated): 0 | Percentage of Shoots that Produced Roots ([2]; glufosinate 3.0 mg/L in rooting medium): 0% | Number of Shoots Producing Roots ([2]; glufosinate 3.0 mg/L, 30 shoots cultivated): 0 | Percentage of Shoots that Produced Roots ([2]; glufosinate 4.0 mg/L in rooting medium): 0% | Number of Shoots Producing Roots ([2]; glufosinate 4.0 mg/L, 25 shoots cultivated): 0 | Percentage of Shoots that Produced Roots ([2]; glufosinate 5.0 mg/L in rooting medium): 0% | Number of Shoots Producing Roots ([2]; glufosinate 5.0 mg/L, 25 shoots cultivated): 0 | Percentage of Shoots that Produced Roots ([2]; glufosinate 6.0 mg/L in rooting medium): 0% | Number of Shoots Producing Roots ([2]; glufosinate 6.0 mg/L, 25 shoots cultivated): 0 | root formation of soybean shoots ([2]; rooting media supplemented with 1 to 6 mg/L glufosinate): no root formation was observed | effective glufosinate concentration for inhibition of soybean shoot growth and development ([2]; rooting medium, non-transgenic shoots): at least 1.0 mg/L | Number of Plants with Unhealthy, Brown/Black Roots [3, 8]: 212 | Number of Plants with Viable, White Roots [3, 8]: 319 | Plants with Unhealthy, Brown/Black Roots (%) [3, 8]: 40% | Plants with Viable, White Roots (%) [3, 8]: 60% | soybean plants produced from rooting medium comprising a selection agent that were transgenic (expressed the yellow fluorescence protein transgene) ([3]; microscopy, shoots with viable, white roots): about 92% | Number of Plants with YFP Expression [3, 9]: 271 | Number of Plants with no YFP Expression [3, 9]: 260 | Plants with YFP Expression (%) [3, 9]: 51% | Plants with no YFP Expression (%) [3, 9]: 49% | root phenotype of germline transformants [3, 10]: produce healthy, viable roots; also recorded: healthy viable roots were produced | root phenotype of non-germline or chimeric transformants [3, 10]: either do not form roots or develop brown/black roots; also recorded: do not produce viable roots; also recorded: (1) no roots were produced; (2) roots were produced and turned brown; and, (3) roots were produced and turned black
